# Source: patent US20260102387A1, “IMMUNOSUPPRESSIVE COMPOUNDS” (UNIVERSITÄT BASEL, priority 2022, published 2026)
# How the values were obtained:
# coronin 1 = experiment: Western blotting of coronin 1 protein levels in RBL cells; type: cell-based, Rat; conditions: 2 μg/ml, RBL cells
# Description: buffer with 0.2% SDS containing protease and phosphatase inhibitors (Roche) at 4° C., followed by protein determination (BCA, Pierce) and SDS-PAGE with equal protein amounts transferred onto nitrocellulose and probed using antibodies against the indicated proteins (actin and coronin 1) followed by HRP-labeled secondary antibodies and developed using an enhanced chemi-luminescence imager (Fuji) (FIG. 3C).
# BRD3 BD1 = molecular target: T1, BRD3 BD1 (Homo sapiens, UniProt Q15059); experiment: Bromoscan (Eurofins) binding: BRD3 BD1
# T1 construct: T7 phage display (bromodomain fused to phage); purchased Eurofins (bromoscan service); host or cells: E. coli host derived from BL21, T7 phage
# T1 sequence (Q15059 34-140 limits assumed): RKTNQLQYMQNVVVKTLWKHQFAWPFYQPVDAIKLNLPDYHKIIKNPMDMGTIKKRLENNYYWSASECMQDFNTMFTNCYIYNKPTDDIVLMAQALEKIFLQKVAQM
# Description: (§1) Following the initial data from TPP, to further confirm the interaction of compound with BRD3, an in-vitro assay system named bromoscan (Eurofins) was employed to analyse the affinity of the (4S,7R)-configurated compound 12e against the two bromodomains of BRD3.
# T7 phage strains displaying bromodomains were grown in 24-well blocks in an E. coli host derived from the BL21 strain. E. coli were grown to log-phase and infected with T7 phage from a frozen stock (multiplicity of infection=0.4) and incubated with shaking at 32° C. until lysis (90-150 minutes). The lysates were centrifuged (5,000×g) and filtered (0.2 μm) to remove cell debris. Streptavidin-coated magnetic beads were treated with biotinylated small molecule or acetylated peptide ligands for 30 minutes at room temperature to generate affinity resins for bromodomain assays. The liganded beads were blocked with excess biotin and washed with blocking buffer (SeaBlock (Pierce), 1% BSA, 0.05% Tween 20, 1 mM DTT) to remove unbound ligand and to reduce non-specific phage binding. […] Test compounds were prepared as 1000× stocks in 100% DMSO. Kds were determined using an 11-point 3-fold compound dilution series with one DMSO control point. All compounds for Kd measurements are distributed by acoustic transfer (non-contact dispensing) in 100% DMSO. […] The bromodomain concentration in the eluates was measured by qPCR. […]
# RBL cells = experiment: Cell viability by live-dead staining (cytotoxicity), flow cytometry; type: cell-based, Rat; conditions: Rattus norvegicus, RBL, cell viability via live/dead staining, 48-65 h, read-out: EC50 Toxicity
# How it was run: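 RBL cells with coronin 1 promoter-GFP, mixed 1:1 with CMV promoter-RFP RBL cells, exposed to compound 48-65 h. Flow cytometry read RFP fluorescence for non-specific promoter inhibition and live-dead staining for cytotoxicity. EC50 values derived; cycloheximide positive control, DMSO negative.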
# [1] = tested on: human peripheral blood mononuclear cells; experiment: Mixed Lymphocyte Reaction, tritiated-thymidine uptake; type: cell-based; conditions: human PBMCs
# Description: For assessment of the suppression of alloresponses by coronin 1 modulators using the MLR methodology, heparinized or EDTA treated blood or buffy coat from two healthy volunteers were enriched for […] using the standard Histopaque 1.077 gradient centrifugation methodology as detailed above. Post enrichment, one of the donors PBMCs was considered as “responders” and the other as “stimulators”. The “stimulators” were treated with mitomycin to prevent proliferation while the “responders” PBMCs were left untreated. The stimulator and responder PBMCs were washed extensively with plain RPMI and subsequently counted and seeded in 96 well plate at a density of 0.1 million cells/well each (responders plus stimulators=0.2 million cells/well) in a volume of 200 μl RPMI-1640 (Sigma) containing 1× penicillin and streptomycin (Gibco), 2 mM L-glutamine (Gibco) and 10% heat inactivated FCS (PAA) along with the vehicle (DMSO) or coronin 1 expression inhibitor at indicated concentrations. Cells were incubated in a 37° C. humidified incubator with a 5% CO2 for five days with the expression inhibitor and at the end of which 0.5 μCi of tritiated thymidine was added to all wells and further incubated for 20 h followed by harvesting on a GF/C filter and measuring the DNA-incorporated counts using a Packard instrument as a measure of immune responses (FIG. 10).
# BRD3 = molecular target: T2, BRD3 (Rattus norvegicus, UniProt D3ZWU1); experiment: Thermal Proteome Profiling in RBL cells: BRD3; type: binding; conditions: 6 μM
# T2 construct: endogenous in cells; host or cells: RBL (rat basophil leukemia) cells
# T2 sequence (D3ZWU1 1-725): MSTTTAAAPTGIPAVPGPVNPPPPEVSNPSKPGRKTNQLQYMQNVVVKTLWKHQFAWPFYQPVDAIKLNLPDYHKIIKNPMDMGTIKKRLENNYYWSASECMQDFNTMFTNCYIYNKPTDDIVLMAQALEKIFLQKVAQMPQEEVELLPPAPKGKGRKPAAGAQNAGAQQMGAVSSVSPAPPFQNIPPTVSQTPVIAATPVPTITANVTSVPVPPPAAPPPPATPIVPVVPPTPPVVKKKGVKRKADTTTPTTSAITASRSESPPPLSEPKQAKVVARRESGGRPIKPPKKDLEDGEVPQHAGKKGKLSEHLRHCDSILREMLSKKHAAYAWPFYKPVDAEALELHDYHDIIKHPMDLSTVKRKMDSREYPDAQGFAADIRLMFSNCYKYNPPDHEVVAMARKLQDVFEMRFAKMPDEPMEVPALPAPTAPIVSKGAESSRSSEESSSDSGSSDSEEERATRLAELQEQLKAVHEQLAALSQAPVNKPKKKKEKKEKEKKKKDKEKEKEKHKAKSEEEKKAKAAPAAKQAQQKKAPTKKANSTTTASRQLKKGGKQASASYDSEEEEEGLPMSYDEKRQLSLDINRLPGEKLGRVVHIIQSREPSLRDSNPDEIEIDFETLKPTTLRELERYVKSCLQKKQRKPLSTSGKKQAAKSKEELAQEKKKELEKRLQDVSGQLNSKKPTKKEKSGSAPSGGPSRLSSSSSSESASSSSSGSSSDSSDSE
# Description: To identify the target of the coronin 1 modulatory compounds, Thermal Proteome Profiling (TPP), a methodology based on the property of proteins to alter their thermal stability upon interactions with small molecules (Savitski, M. M., et al., Science, 2014. 346(6205): p. 1255784), was employed. To that end, Rat Basophil Leukemia (RBL) cells were incubated with the compound 12e followed by gradient thermal denaturation (37/41/44/47/50/53/56/59/63/67 degree C.) and mass spectrometric assessment of proteins that get either stabilized or destabilized upon interacting with the compound performed. […]
# Thermal proteome profiling was performed as described (Savitski, M. M., et al., Science, 2014. 346(6205): p. 1255784). In brief, RBL cells (50 millions/condition) were incubated with the vehicle DMSO or the compound 12e at 6, 3 or 0 μM concentration for a period of 1 h at the end of which, the cells were washed in ice cold PBS, counted and subjected to thermal denaturation (37/41/44/47/50/53/56/59/63/67° C.) for 3 minutes, lysed by freeze thawing in liquid nitrogen and supernatant containing the soluble proteins separated by centrifugation at 100,000 g for 30 minutes. Equal volumes of the supernatant were taken, subjected to tryptic digestion and labelling with 10 plex-TMT (Thermo Fisher) and the labelled peptides analyzed and quantitated using mass spectrometry (FIG. 13).
# BRD3 BD2 = molecular target: T3, BRD3 BD2 (Homo sapiens, UniProt Q15059); experiment: Bromoscan (Eurofins) binding: BRD3 BD2
# T3 construct: T7 phage display (bromodomain fused to phage); purchased Eurofins (bromoscan service); host or cells: E. coli host derived from BL21, T7 phage
# T3 sequence (Q15059 306-415 limits assumed): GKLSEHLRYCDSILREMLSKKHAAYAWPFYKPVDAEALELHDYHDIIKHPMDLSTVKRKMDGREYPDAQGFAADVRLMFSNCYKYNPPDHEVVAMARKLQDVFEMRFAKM
# Description: as §1
# T7 phage strains displaying bromodomains were grown in 24-well blocks in an E. coli host derived from the BL21 strain. E. coli were grown to log-phase and infected with T7 phage from a frozen stock (multiplicity of infection=0.4) and incubated with shaking at 32° C. until lysis (90-150 minutes). The lysates were centrifuged (5,000×g) and filtered (0.2 μm) to remove cell debris. Streptavidin-coated magnetic beads were treated with biotinylated small molecule or acetylated peptide ligands for 30 minutes at room temperature to generate affinity resins for bromodomain assays. The liganded beads were blocked with excess biotin and washed with blocking buffer (SeaBlock (Pierce), 1% BSA, 0.05% Tween 20, 1 mM DTT) to remove unbound ligand and to reduce non-specific phage binding. […] Test compounds were prepared as 1000× stocks in 100% DMSO. Kds were determined using an 11-point 3-fold compound dilution series with one DMSO control point. All compounds for Kd measurements are distributed by acoustic transfer (non-contact dispensing) in 100% DMSO. The compounds were then diluted directly into the assays such that the final concentration of DMSO was 0.09%. All reactions performed in polypropylene 384-well plates. Each was a final volume of 0.02 ml. The assay plates were incubated at room temperature with shaking for 1 hour and the affinity beads were washed with wash buffer (1×PBS, 0.05% Tween 20). The beads were then resuspended in elution buffer (1×PBS, 0.05% Tween 20, 2 μM non-biotinylated affinity ligand) and incubated at room temperature with shaking for 30 minutes. The bromodomain concentration in the eluates was measured by qPCR. The bromoscan analysis was done at Eurofins (FIG. 15).
# coronin 1 promoter = experiment: EC50 analysis for coronin 1 promoter driven GFP inhibition by flow cytometry in RBL cells; type: cell-based; conditions: for EC50: RBL, RBL cells, 48-65 h, flow cytometry
# How it was run: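 RBL cells carrying coronin 1 promoter–GFP, mixed with CMV promoter–RFP cells, exposed to compounds 48–65 h and analyzed by flow cytometry with live/dead staining. EC50 derived from GFP inhibition, with RFP and viability as nonspecific and toxicity counter-reads; cycloheximide and DMSO as controls, relative potency normalized to a reference compound.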
# CMV promoter = experiment: EC50 analysis for CMV promoter driven RFP inhibition (non-specific activity) by flow cytometry in RBL cells; type: cell-based, cytomegalovirus; conditions: 48-65 h, read-out: EC50 RFP alteration
# Description: RBL cells expressing GFP under coronin 1 promoter and optionally with RBL cells expressing RFP under CMV promoter were mixed in equal numbers and incubated with the compounds at indicated concentrations for 48-65 h and analyzed by flow cytometry for alteration in coronin 1 promoter (GFP fluorescence), CMV promoter (RFP fluorescence) values. In addition, the cells were labelled with live-dead marker for assessing cell viability status by flow cytometry. Cycloheximide (CHX) serves as positive control and DMSO serves as negative controls. Effective Concentration (EC50) values for coronin 1 promoter inhibition via GFP fluorescence analysis, non-specific promoter inhibition via CMV promoter driven-RFP fluorescence analysis and cell viability via live/dead staining as a measure for toxicity in flow cytometry for compounds (10-22 and 50a-65a) are shown in Table 6 and Table 7. Based on the EC50 analysis of the inhibition of coronin 1 promoter driven GFP fluorescence the (4S,7R)-configurated eutomers were identified (Structures FIG. 9A-C). This is exemplified for compounds containing two stereocenters by eutomers 11c and 13a. […] Subsequent EC50 evaluations (Table 7) were performed with compound 13a as standard for relative potency normalized to a value of 1.00 (relative potency calculated as [EC50 GFP inhibition 13a]/[EC50 GFP inhibition compound of interest]).
# [2] = tested on: imiquimod-induced psoriasis; experiment: Imiquimod-induced mouse model for psoriasis; type: in vivo, mice (Balb/c); conditions: 50 mg/kg body weight, twice daily, topical route, day 4
# Description: Wild type mice (Balb/c strain, 8-12 weeks), were age and sex matched. The dorsal skin was shaved with a trimmer on an area of ˜2 cm^2 and subjected to topical application of 5% imiquimod cream (Aldara) starting from day 1 and continued for up to 7 days in the morning. For compound administration, mice were applied topically with the compound, twice a day starting 48 hours before the first Imiquimod application and all along of the experiment up to day 7. In the morning, compound was applied 2 h prior to the imiquimod application (FIG. 12A). Mice were scored every day for the inflammatory lesion and general health status as follows: […]
SMILES,coronin 1 depletion by Western blot (coronin 1),Kd (BRD3 BD1) [µM],EC50 (RBL cells) [µM],Mixed Lymphocyte Responses (tritiated-thymidine uptake) [1],increase of thermal denaturation of BRD3 (BRD3),Kd (BRD3 BD2) [µM],relative affinity for BRD3 bromodomains BD1 and BD2 (BRD3 BD2),EC50 (coronin 1 promoter) [µM],EC50 (CMV promoter) [µM],"disease score (erythema, surface area affected, psoriatic plaque formation) [2]","rel. potency GFP inhibition (coronin 1 promoter; [EC50 GFP inhibition 13a]/[EC50 GFP inhibition compound of interest], 13a = 1.00)"
"COc1ccccc1[C@H]1CC(=O)C2=C(C1)NC(C)=C(C(=O)OC[C@@H]1CCCO1)[C@H]2c1cccc(O)c1 [12e, tetrahydro-2-furanylmethyl (4S, 7R)-4-(3-hydroxyphenyl)-7-(2-methoxyphenyl)-2-methyl-5-oxo-1,4,5,6,7,8-hexahydro-3-quinolinecarboxylate]",showed coronin 1 depletion,~0.2,> 20,inhibition,over four degrees Celsius,~0.01,higher affinity for the BD2 domain,0.07,,,
"COc1ccccc1[C@H]1CC(=O)C2=C(C1)NC(C)=C(C(=O)OC1CCOCC1)[C@H]2c1cccc(O)c1 [13a, tetrahydro-2H-pyran-4-yl (4S, 7R)-4-(3-hydroxyphenyl)-7-(2-methoxyphenyl)-2-methyl-5-oxo-1,4,5,6,7,8-hexahydro-3-quinolinecarboxylate]",showed coronin 1 depletion,0.15,> 2.5,,,0.004,higher affinity for the BD2 domain,0.065,> 2.5,suppresses autoimmune-inflammatory disease severity,1.00
